#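 Protocol summary: plate cells (96-well), add compound at 5 concentrations, incubate 48 h, interpolate endpoints linearly. GI50 marks 50% less growth.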 The source made the active and inactive calls. Cut-off read from the data, not from the text of the source: active = GI50 up to about 1.1 µM and inactive = higher.
# Key:
# Experiment in all cases: NCI-60 cell line screen, 48 h
# 786-0 = system: 786-0
# A498 = system: A498
# A549 = system: A549
# ACHN = system: ACHN
# CCRF-CEM = system: CCRF-CEM
# COLO 205 = system: COLO 205
# DLD-1 = system: DLD-1
# DMS-114 = system: DMS-114
# EKVX = system: EKVX
# HCC 2998 = system: HCC 2998
# HCT-116 = system: HCT-116
# HCT-15 = system: HCT-15
# HL-60 = system: HL-60
# HOP-18 = system: HOP-18
# HOP-62 = system: HOP-62
# HOP-92 = system: HOP-92
# HT-29 = system: HT-29
# IGROV-1 = system: IGROV-1
# K562 = system: K562
# KM-20L2 = system: KM-20L2
# KM12 = system: KM12
# LXFL 529 = system: LXFL 529
# M14 = system: M14
# M19-MEL = system: M19-MEL
# MOLT-4 = system: MOLT-4
# Malme-3M = system: Malme-3M
# NCI-H23 = system: NCI-H23
# NCI-H460 = system: NCI-H460
# NCI-H522 = system: NCI-H522
# OVCAR-3 = system: OVCAR-3
# OVCAR-4 = system: OVCAR-4
# OVCAR-5 = system: OVCAR-5
# OVCAR-8 = system: OVCAR-8
# RPMI-8226 = system: RPMI-8226
# RXF 393 = system: RXF 393
# RXF 631 = system: RXF 631
# SF-268 = system: SF-268
# SF-295 = system: SF-295
# SF-539 = system: SF-539
# SK-MEL-28 = system: SK-MEL-28
# SK-MEL-2 = system: SK-MEL-2
# SK-MEL-5 = system: SK-MEL-5
# SN12C = system: SN12C
# SNB-75 = system: SNB-75
# SNB-78 = system: SNB-78
# SR = system: SR
# SW-620 = system: SW-620
# TK-10 = system: TK-10
# U-251 = system: U-251
# UACC-257 = system: UACC-257
# UACC-62 = system: UACC-62
# UO-31 = system: UO-31
# CAKI-1 = system: CAKI-1
# DMS-273 = system: DMS-273
# NCI-H226 = system: NCI-H226
# SNB-19 = system: SNB-19
structure (smiles),measurement,setting,value
CC1=C(Cl)C=CP(=O)(OC(C)C)C1 (centres undefined),GI50,786-0,> 100 µM (inactive)
same,GI50,A498,> 100 µM (inactive)
same,GI50,A549,> 100 µM (inactive)
same,GI50,ACHN,> 100 µM (inactive)
same,GI50,CCRF-CEM,37.5 µM (inactive)
same,GI50,COLO 205,> 100 µM (inactive)
same,GI50,DLD-1,35.7 µM (inactive)
same,GI50,DMS-114,> 100 µM (inactive)
same,GI50,EKVX,> 100 µM (inactive)
same,GI50,HCC 2998,> 100 µM (inactive)
same,GI50,HCT-116,37.2 µM (inactive)
same,GI50,HCT-15,> 100 µM
same,GI50,HL-60,52 µM (inactive)
same,GI50,HOP-18,> 100 µM (inactive)
same,GI50,HOP-62,> 100 µM (inactive)
same,GI50,HOP-92,> 100 µM (inactive)
same,GI50,HT-29,> 100 µM (inactive)
same,GI50,IGROV-1,> 100 µM (inactive)
same,GI50,K562,47.4 µM (inactive)
same,GI50,KM-20L2,> 100 µM (inactive)
same,GI50,KM12,> 100 µM (inactive)
same,GI50,LXFL 529,> 100 µM (inactive)
same,GI50,M14,61.7 µM (inactive)
same,GI50,M19-MEL,> 100 µM (inactive)
same,GI50,MOLT-4,40.7 µM (inactive)
same,GI50,Malme-3M,> 100 µM (inactive)
same,GI50,NCI-H23,> 100 µM (inactive)
same,GI50,NCI-H460,> 100 µM (inactive)
same,GI50,NCI-H522,27.8 µM (inactive)
same,GI50,OVCAR-3,> 100 µM (inactive)
same,GI50,OVCAR-4,> 100 µM (inactive)
same,GI50,OVCAR-5,> 100 µM (inactive)
same,GI50,OVCAR-8,36.9 µM (inactive)
same,GI50,RPMI-8226,50.2 µM (inactive)
same,GI50,RXF 393,> 100 µM (inactive)
same,GI50,RXF 631,33.1 µM (inactive)
same,GI50,SF-268,> 100 µM (inactive)
same,GI50,SF-295,> 100 µM (inactive)
same,GI50,SF-539,> 100 µM (inactive)
same,GI50,SK-MEL-28,> 100 µM (inactive)
same,GI50,SK-MEL-2,> 100 µM (inactive)
same,GI50,SK-MEL-5,> 100 µM (inactive)
same,GI50,SN12C,> 100 µM (inactive)
same,GI50,SNB-75,0.39 µM (active)
same,GI50,SNB-78,> 100 µM (inactive)
same,GI50,SR,46.2 µM (inactive)
same,GI50,SW-620,67.8 µM (inactive)
same,GI50,TK-10,> 100 µM (inactive)
same,GI50,U-251,> 100 µM (inactive)
same,GI50,UACC-257,> 100 µM (inactive)
same,GI50,UACC-62,> 100 µM (inactive)
same,GI50,UO-31,> 100 µM (inactive)
CN(CCc1ccccn1)/[N+]([O-])=N/O.CNCCc1ccccn1,GI50,786-0,> 100 µM (inactive)
same,GI50,A549,> 100 µM (inactive)
same,GI50,ACHN,> 100 µM (inactive)
same,GI50,CAKI-1,> 100 µM (inactive)
same,GI50,CCRF-CEM,> 100 µM (inactive)
same,GI50,COLO 205,> 100 µM (inactive)
same,GI50,DLD-1,> 100 µM (inactive)
same,GI50,DMS-114,> 100 µM (inactive)
same,GI50,DMS-273,> 100 µM (inactive)
same,GI50,EKVX,> 100 µM (inactive)
same,GI50,HCC 2998,> 100 µM (inactive)
same,GI50,HCT-116,> 100 µM (inactive)
same,GI50,HCT-15,> 100 µM
same,GI50,HL-60,> 100 µM (inactive)
same,GI50,HOP-18,> 100 µM (inactive)
same,GI50,HOP-62,> 100 µM (inactive)
same,GI50,HOP-92,> 100 µM (inactive)
same,GI50,HT-29,> 100 µM (inactive)
same,GI50,IGROV-1,> 100 µM (inactive)
same,GI50,K562,> 100 µM (inactive)
same,GI50,KM-20L2,> 100 µM (inactive)
same,GI50,KM12,> 100 µM (inactive)
same,GI50,LXFL 529,> 100 µM (inactive)
same,GI50,M14,> 100 µM (inactive)
same,GI50,M19-MEL,> 100 µM (inactive)
same,GI50,MOLT-4,> 100 µM (inactive)
same,GI50,Malme-3M,> 100 µM (inactive)
same,GI50,NCI-H226,> 100 µM (inactive)
same,GI50,NCI-H23,> 100 µM (inactive)
same,GI50,NCI-H460,> 100 µM (inactive)
same,GI50,OVCAR-3,> 100 µM (inactive)
same,GI50,OVCAR-4,> 100 µM (inactive)
same,GI50,OVCAR-5,> 100 µM (inactive)
same,GI50,OVCAR-8,> 100 µM (inactive)
same,GI50,RPMI-8226,> 100 µM (inactive)
same,GI50,RXF 393,> 100 µM (inactive)
same,GI50,RXF 631,> 100 µM (inactive)
same,GI50,SF-268,> 100 µM (inactive)
same,GI50,SF-295,> 100 µM (inactive)
same,GI50,SF-539,> 100 µM (inactive)
same,GI50,SK-MEL-28,> 100 µM (inactive)
same,GI50,SK-MEL-2,> 100 µM (inactive)
same,GI50,SK-MEL-5,> 100 µM (inactive)
same,GI50,SN12C,> 100 µM (inactive)
same,GI50,SNB-19,> 100 µM (inactive)
same,GI50,SNB-75,> 100 µM (inactive)
same,GI50,SNB-78,> 100 µM (inactive)
same,GI50,SR,> 100 µM (inactive)
same,GI50,SW-620,> 100 µM (inactive)
same,GI50,UACC-257,> 100 µM (inactive)
same,GI50,UACC-62,> 100 µM (inactive)
same,GI50,UO-31,> 100 µM (inactive)
